Measurements reported in patent US8404677B2, “Kinase inhibitors” (Genosco, priority 2009, dated 2013).

Key:
[1] = system: TK-10; assay: cells; type: cell-based; conditions: TK-10 (Renal Cancer)
[2] = system: EKVX; assay: cells; type: cell-based; conditions: EKVX (NSCLC)
[3] = system: ACHN; assay: cells; type: cell-based; conditions: ACHN (Renal Cancer)
[4] = system: HCC-2998; assay: cells; type: cell-based; conditions: HCC-2998 (Colon Cancer)
[5] = system: TNF-α release in THP-1 cells, LPS stimulation; assay: SYK independent TNF-α release assay (LPS stimulation); type: cell-based, human
Procedure: For SYK independent TNF-α release assay (i.e., via lipopolysaccharide (LPS)-stimulation), THP-1 cells derived from human monocytic cells were obtained from the American Type Culture Collection (ATCC, Manassas, Va.). This cell line was maintained with an RPMI medium (GIBCO™) containing 10 fetal bovine serum (FBS, GIBCO™) and 0.05 mM 2-mercaptoethanol. The THP-1 cells were seeded at 1×10^5 cells/100 μL/well into 96-well culture plates, and treated with lipopolysaccharide (1 μg/ml), and serially diluted compound was then added. After an 18-hour incubation period at 37° C., supernatants were collected for the determination of the TNF-α level by ELISA, and the remaining cells were subjected to an MTT assay to determine the cytotoxic effects of compound.

[6] = system: MOLT-4; assay: cells; type: cell-based; conditions: MOLT-4 (Leukemia)
[7] = system: HS 578T; assay: cells; type: cell-based; conditions: HS 578T (Breast Cancer)
[8] = system: A498; assay: cells; type: cell-based; conditions: A498 (Renal Cancer)
[9] = system: MDA-MB-435; assay: cells; type: cell-based; conditions: MDA-MB-435 (Melanoma)
[10] = system: SK-MEL-5; assay: cells; type: cell-based; conditions: SK-MEL-5 (Melanoma)
[11] = system: NCI-H23; assay: cells; type: cell-based; conditions: NCI-H23 (NSCLC)
[12] = system: SW-620; assay: cells; type: cell-based; conditions: SW-620 (Colon Cancer)
[13] = system: OVCAR-5; assay: cells; type: cell-based; conditions: OVCAR-5 (Ovarian Cancer)
[14] = system: CAKI-1; assay: cells; type: cell-based; conditions: CAKI-1 (Renal Cancer)
[15] = system: HCT-15; assay: cells; type: cell-based; conditions: HCT-15 (Colon Cancer)
[16] = system: HT29; assay: cells; type: cell-based; conditions: HT29 (Colon Cancer)
[17] = system: NCI-H322M; assay: cells; type: cell-based; conditions: NCI-H322M (NSCLC)
[18] = system: UO-31; assay: cells; type: cell-based; conditions: UO-31 (Renal Cancer)
[19] = system: K-562; assay: cells; type: cell-based; conditions: K-562 (Leukemia)
[20] = system: PC-3; assay: cells; type: cell-based; conditions: PC-3 (Prostate Cancer)
[21] = system: HOP-62; assay: cells; type: cell-based; conditions: HOP-62 (NSCLC)
[22] = system: LOX IMVI; assay: cells; type: cell-based; conditions: LOX IMVI (Melanoma)
[23] = system: MALME-3M; assay: cells; type: cell-based; conditions: MALME-3M (Melanoma)
[24] = Homo sapiens, read-out: LC50 (the source's name)

O=c1[nH]ccc2nc(N3CCC(O)CC3)nc(Nc3cccc(C(F)(F)F)c3)c12 [Compound 6, 2-(4-hydroxypiperidin-1-yl)-4-(3-(trifluoromethyl)phenylamino)pyrido[4,3-d]pyrimidine-5(6H)-one]
GI50 ([1]; Homo sapiens): 6.03 µM
IC50 ([1]; Homo sapiens): 36.3 µM
CC50 [1, 24]: 100 µM
TGI [1]: 44.7 µM
TGI [2]: 12 µM
GI50 ([2]; Homo sapiens): 2.88 µM
IC50 ([2]; Homo sapiens): 7.59 µM
CC50 [2, 24]: 100 µM
TGI [3]: 85.1 µM
GI50 ([3]; Homo sapiens): 0.708 µM
IC50 ([3]; Homo sapiens): 2.24 µM
CC50 [3, 24]: 100 µM
TGI [4]: 38 µM
GI50 ([4]; Homo sapiens): 11.2 µM
IC50 ([4]; Homo sapiens): 25.1 µM
CC50 [4, 24]: 100 µM
inhibition at 0.3 µM ([5]; Homo sapiens, LPS stimulation, At 0.3 μM, THP-1, read-out: Inhibition of TNF-α Release (percentage inhibition)): 58%
inhibition at 1 µM ([5]; Homo sapiens, LPS stimulation, At 1 μM, THP-1, read-out: Inhibition of TNF-α Release (percentage inhibition)): 68.9%
percentage inhibition of TNF-α release compared with dexamethasone ([5]; LPS stimulated release): greater than or equal to those exhibited by dexamethasone
GI50 ([6]; Homo sapiens): 2.24 µM
IC50 ([6]; Homo sapiens): 3.63 µM
LC50 ([6]; Homo sapiens): 100 µM
TGI [6]: 7.76 µM
TGI [7]: 14.1 µM
GI50 ([7]; Homo sapiens): 1.95 µM
IC50 ([7]; Homo sapiens): 43.7 µM
CC50 [7, 24]: 100 µM
TGI [8]: 100 µM
GI50 ([8]; Homo sapiens): 2.51 µM
IC50 ([8]; Homo sapiens): ≥ 100 µM
CC50 [8, 24]: 100 µM
GI50 ([9]; Homo sapiens): 1.29 µM
IC50 ([9]; Homo sapiens): 2.57 µM
CC50 [9, 24]: 9.77 µM
TGI [9]: 3.55 µM
GI50 ([10]; Homo sapiens): 1.23 µM
IC50 ([10]; Homo sapiens): 2.14 µM
CC50 [10, 24]: 5.13 µM
TGI [10]: 2.51 µM
GI50 ([11]; Homo sapiens): 3.24 µM
IC50 ([11]; Homo sapiens): 6.92 µM
CC50 [11, 24]: 50.1 µM
TGI [11]: 13.8 µM
GI50 ([12]; Homo sapiens): 1.91 µM
IC50 ([12]; Homo sapiens): 2.82 µM
CC50 [12, 24]: 74.1 µM
TGI [12]: 12.9 µM
GI50 ([13]; Homo sapiens): 28.2 µM
IC50 ([13]; Homo sapiens): 74.1 µM
CC50 [13, 24]: 100 µM
TGI [13]: 93.3 µM
TGI [14]: 6.31 µM
GI50 ([14]; Homo sapiens): 0.282 µM
IC50 ([14]; Homo sapiens): 1.29 µM
CC50 [14, 24]: 100 µM
TGI [15]: 31.6 µM
GI50 ([15]; Homo sapiens): 0.537 µM
IC50 ([15]; Homo sapiens): 0.759 µM
CC50 [15, 24]: 100 µM
TGI [16]: 95.5 µM
GI50 ([16]; Homo sapiens, HT-29): 3.89 µM
IC50 ([16]; Homo sapiens, HT-29): 7.08 µM
CC50 ([16]; Homo sapiens, HT-29, read-out: LC50 (the source's name)): 100 µM
GI50 ([17]; Homo sapiens): 2.29 µM
IC50 ([17]; Homo sapiens): 21.4 µM
CC50 [17, 24]: 100 µM
TGI [17]: 28.8 µM
GI50 ([18]; Homo sapiens): 0.776 µM
IC50 ([18]; Homo sapiens): 16.2 µM
CC50 [18, 24]: 100 µM
TGI [18]: 22.9 µM
GI50 ([19]; Homo sapiens, K562): 3.16 µM
IC50 ([19]; Homo sapiens, K562): 3.98 µM
CC50 ([19]; Homo sapiens, K562, read-out: LC50 (the source's name)): 100 µM
TGI [19]: 100 µM
GI50 ([20]; Homo sapiens): 2.29 µM
IC50 ([20]; Homo sapiens): 4.68 µM
CC50 [20, 24]: 93.3 µM
TGI [20]: 12.9 µM
TGI [21]: 18.6 µM
GI50 ([21]; Homo sapiens): 4.37 µM
IC50 ([21]; Homo sapiens): 8.91 µM
CC50 [21, 24]: 79.4 µM
GI50 ([22]; Homo sapiens): 1.41 µM
IC50 ([22]; Homo sapiens): 2.63 µM
CC50 [22, 24]: 91.2 µM
TGI [22]: 16.6 µM
GI50 ([23]; Homo sapiens): 2.63 µM
IC50 ([23]; Homo sapiens): 9.77 µM
CC50 [23, 24]: 32.4 µM
TGI [23]: 7.94 µM
